Test results from patent US20180015075A1, “METHODS AND COMPOSITIONS FOR TREATMENT OF VENOUS MALFORMATION” (Children's Hospital Medical Center, priority 2016, published 2018).
Like-named read-outs stand apart in the source and are kept apart here.

Experiments:
Pik3ca^H1047R VM lesions = conditions: mouse, in vivo; cited from earlier work
[1] = test system: HUVEC-TIE2-L914F-GFP vascular channels; test: Fibrin gel bead assay; assay type: cell-based, human
Method: Assay was performed as described(34). Briefly, coated the beads with HUVEC-GFP or HUVEC-TIE2-L914F-GFP cells (2500 beads with 1×10^6 cells) and mixed coated beads in fibrinogen solution at a concentration of ˜500 beads/ml. Then 0.625 Units/mL of thrombin and 0.5 ml beads/fibrinogen suspension were added per well in 24-well plate successively. After dotting in the 37° C.-incubator, added 1 ml EGM-2 medium and 20,000 fibroblasts per well on the top. Then beads treated by adding DMSO, Ponatinib, rapamycin or combination in the medium

| SMILES | VM lesion growth (Pik3ca^H1047R VM lesions) | cell apoptosis (cleaved caspase-3 positive cells) (Pik3ca^H1047R VM lesions) | tube formation (tube area at day 11) [1] | vascular/tube area expansion from day 8 to 14 [1] [%] | vascular/tube area expansion from day 8 to 14 ([1]; 100 nM Ponatinib or 10 nM rapamycin added from day 8, vehicle 54.50±3.81%) [%] |
| --- | --- | --- | --- | --- | --- |
| Cc1nc(NC(=O)N2CCC[C@H]2C(N)=O)sc1-c1ccnc(C(C)(C)C(F)(F)F)c1 [BYL719] | strongly inhibited VM lesion growth | increased the number of cleaved caspase-3 positive cells | – | – | – |
| CO[C@H]1C[C@@H]2CC[C@@H](C)[C@@](O)(O2)C(=O)C(=O)N2CCCC[C@H]2C(=O)O[C@H]([C@H](C)C[C@@H]2CC[C@@H](OCCO)[C@H](OC)C2)CC(=O)[C@H](C)/C=C(\C)[C@@H](O)[C@@H](OC)C(=O)[C@H](C)C[C@H](C)/C=C/C=C/C=C/1C [Everolimus, 42-O-(2-Hydroxyethyl)-rapamycin] | prevented lesion growth | did not induce cell apoptosis | – | – | – |
| Cc1ccc(C(=O)Nc2ccc(CN3CCN(C)CC3)c(C(F)(F)F)c2)cc1C#Cc1cnc2cccnn12 [Ponatinib, 3-(2-imidazo[1,2-b]pyridazin-3-ylethynyl)-4-methyl-N-[4-[(4-methyl-1-piperazinyl)methyl]-3-(trifluoromethyl)phenyl]-benzamide] | – | – | almost completely inhibited tube formation | 14.79±4.53 | – |
| CO[C@H]1C[C@@H]2CC[C@@H](C)[C@@](O)(O2)C(=O)C(=O)N2CCCC[C@H]2C(=O)O[C@H]([C@H](C)C[C@@H]2CC[C@@H](O)[C@H](OC)C2)CC(=O)[C@H](C)/C=C(\C)[C@@H](O)[C@@H](OC)C(=O)[C@H](C)C[C@H](C)/C=C/C=C/C=C/1C [Sirolimus, Rapamycin] | – | – | – | – | 20.25±3.23 |
